We go through 24 compounds from ChEMBL document CHEMBL4304805, “Antibacterial activity of 2-amino-4-hydroxypyrimidine-5-carboxylates and binding to Burkholderia pseudomallei 2-C-methyl-d-erythritol-2,4-cyclodiphosphate synthase” (Bioorg Med Chem Lett, 2019).

Format in all cases: functional
Common to all, as to conditions: read-out: DIZ

Experiment [1] concerns Burkholderia thailandensis. In words: Antibacterial activity against Burkholderia thailandensis at 0.5 mM by Kirby Bauer disk diffusion method.
The subject of another experiment is Pseudomonas aeruginosa. Kind of experiment: Antibacterial activity against Pseudomonas aeruginosa at 0.5 mM by Kirby Bauer disk diffusion method.
A further experiment concerns Bacillus cereus. Kind of experiment: Antibacterial activity against Bacillus cereus at 0.5 mM by Kirby Bauer disk diffusion method.
A further experiment deals with Escherichia coli. Kind of experiment: Antibacterial activity against Escherichia coli at 0.5 mM by Kirby Bauer disk diffusion method.
Experiment [2] concerns Mycolicibacterium smegmatis. Kind of experiment: Antibacterial activity against Mycobacterium smegmatis at 0.5 mM by Kirby Bauer disk diffusion method.
For the next experiment, the system named is Klebsiella pneumoniae. In words: Antibacterial activity against Klebsiella pneumoniae at 0.5 mM by Kirby Bauer disk diffusion method.
The subject of a further experiment is Corynebacterium xerosis. In words: Antibacterial activity against Corynebacterium xerosis at 0.5 mM by Kirby Bauer disk diffusion method.
In experiment [3] the test system is Corynebacterium pseudodiphtheriticum. Kind of experiment: Antibacterial activity against Corynebacterium pseudodiphtheriticum at 0.5 mM by Kirby Bauer disk diffusion method.
The test system of the next experiment is Micrococcus luteus. In words: Antibacterial activity against Micrococcus luteus at 0.5 mM by Kirby Bauer disk diffusion method.

With `O=C(O)c1cnc(NCCc2ccccn2)nc1O`, the zone of inhibition at 500 µM in experiment [1] is 10 mm; with Pseudomonas aeruginosa, 17 mm; in the experiment with Bacillus cereus it was 7 mm; with Escherichia coli, 0 mm; in experiment [2], 17 mm; in the experiment with Klebsiella pneumoniae, 7 mm. The zone of inhibition at 500 µM in the experiment on Corynebacterium xerosis is 0 mm; in [3], 0 mm; in the experiment with Micrococcus luteus, 15 mm.
As to `CCOC(=O)c1cnc(NCCc2ccc(Cl)cc2Cl)nc1O`, the zone of inhibition at 500 µM in [1] stood at 11 mm; in the experiment on Pseudomonas aeruginosa it was 0 mm; with Bacillus cereus, 0 mm; in the experiment on Escherichia coli, 0 mm; in experiment [2], 0 mm; in the experiment with Klebsiella pneumoniae, 0 mm. The zone of inhibition at 500 µM (in the experiment on Corynebacterium xerosis; in [3]; with Micrococcus luteus) was 0 mm each time.
`O=C(O)c1cnc(NCCc2ccncc2)nc1O`: the zone of inhibition at 500 µM is 10 mm in experiment [1] and 0 mm with Pseudomonas aeruginosa.
Turning to `CCOC(=O)c1cnc(NCc2ccc(Cl)c(Cl)c2)nc1O`, the zone of inhibition at 500 µM came out at 0 mm in [1]; 0 mm with Pseudomonas aeruginosa; 12 mm with Bacillus cereus; 0 mm in the experiment with Escherichia coli; 0 mm in [2]; 0 mm with Klebsiella pneumoniae. In addition, the zone of inhibition at 500 µM (with Corynebacterium xerosis; in experiment [3]; with Micrococcus luteus) was 0 mm in each case.
For the compound `O=C(O)c1cnc(NCc2ccc(Cl)cc2)nc1O`, the zone of inhibition at 500 µM is 11 mm in [1]; 15 mm in the experiment with Pseudomonas aeruginosa; 14 mm in the experiment on Bacillus cereus; 14 mm in the experiment with Escherichia coli; 15 mm in experiment [2]; 9 mm with Klebsiella pneumoniae. Besides, the zone of inhibition at 500 µM (in the experiment with Corynebacterium xerosis; in experiment [3]; in the experiment with Micrococcus luteus) was 0 mm in each case.
For `CCOC(=O)c1cnc(NCCc2ccc(F)cc2)nc1O`, the zone of inhibition at 500 µM in experiment [1] is 9 mm; in the experiment on Pseudomonas aeruginosa, 11 mm; in the experiment on Bacillus cereus, 11 mm; in the experiment with Escherichia coli it was 0 mm; in experiment [2], 14 mm; in the experiment with Klebsiella pneumoniae, 0 mm. Further, the zone of inhibition at 500 µM (in the experiment on Corynebacterium xerosis; in [3]; with Micrococcus luteus) was 0 mm throughout.
Regarding `CCOC(=O)c1cnc(NCc2ccc(Cl)nc2)nc1O`, the zone of inhibition at 500 µM in [1] came to 9 mm; in the experiment on Pseudomonas aeruginosa, 0 mm; in the experiment with Bacillus cereus, 10 mm.
Turning to `O=C(O)c1cnc(Nc2ccccc2)nc1O`, the zone of inhibition at 500 µM in experiment [1] was determined as 0 mm; with Pseudomonas aeruginosa it was 0 mm; in the experiment with Bacillus cereus, 0 mm; in the experiment with Escherichia coli, 0 mm; in [2] it was 15 mm; with Klebsiella pneumoniae it was 0 mm. Besides, the zone of inhibition at 500 µM (in the experiment on Corynebacterium xerosis; in experiment [3]; in the experiment on Micrococcus luteus) was 0 mm in each case.
As for `CCOC(=O)c1cnc(NCCc2cccc(F)c2)nc1O`, the zone of inhibition at 500 µM (in experiment [1]; with Pseudomonas aeruginosa; with Bacillus cereus; in the experiment on Escherichia coli; in experiment [2]; in the experiment with Klebsiella pneumoniae) was 0 mm each time. Further, the zone of inhibition at 500 µM (in the experiment on Corynebacterium xerosis; in [3]; in the experiment on Micrococcus luteus) was 0 mm throughout.
In the case of `CCOC(=O)c1cnc(Nc2cccc(-c3ccccc3)c2)nc1O`, the zone of inhibition at 500 µM worked out at 0 mm in [1]; 0 mm with Pseudomonas aeruginosa; 15 mm in the experiment on Bacillus cereus; 0 mm with Escherichia coli; 15 mm in [2]; 0 mm with Klebsiella pneumoniae. The zone of inhibition at 500 µM (with Corynebacterium xerosis; in experiment [3]; in the experiment on Micrococcus luteus) was 0 mm throughout.
Regarding `CCOC(=O)c1cnc(NCCc2ccc(Cl)cc2)nc1O`, the zone of inhibition at 500 µM in [1] was 0 mm; in the experiment on Pseudomonas aeruginosa, 0 mm; with Bacillus cereus, 7 mm.
Take `CCOC(=O)c1cnc(Nc2ccc(I)cc2)nc1O`: the zone of inhibition at 500 µM is 0 mm in [1], 0 mm with Pseudomonas aeruginosa and 13 mm in the experiment with Bacillus cereus.
Consider `O=C(O)c1cnc(NCC2CCCO2)nc1O` (stereo unspecified), for which the zone of inhibition at 500 µM worked out at 7 mm in [1]; 0 mm with Pseudomonas aeruginosa; 0 mm in the experiment on Bacillus cereus; 0 mm in the experiment with Escherichia coli; 0 mm in [2]; 0 mm with Klebsiella pneumoniae. The zone of inhibition at 500 µM (with Corynebacterium xerosis; in experiment [3]; in the experiment on Micrococcus luteus) was 0 mm each time.
For `CCOC(=O)c1cnc(NCc2ccccc2Cl)nc1O`, the zone of inhibition at 500 µM in experiment [1] came out at 0 mm; with Pseudomonas aeruginosa it was 0 mm; with Bacillus cereus it was 10 mm; in the experiment with Escherichia coli, 0 mm; in experiment [2], 0 mm; with Klebsiella pneumoniae it was 0 mm. Further, the zone of inhibition at 500 µM in the experiment with Corynebacterium xerosis was 0 mm; in [3], 0 mm; with Micrococcus luteus, 15 mm.
Regarding `O=C(O)c1cnc(Nc2ccc(-c3ccccc3)cc2)nc1O`, the zone of inhibition at 500 µM in [1] turned out to be 0 mm; in the experiment with Pseudomonas aeruginosa, 0 mm; in the experiment on Bacillus cereus, 12 mm; with Escherichia coli, 0 mm; in [2] it was 15 mm; in the experiment with Klebsiella pneumoniae, 15 mm. The zone of inhibition at 500 µM (in the experiment on Corynebacterium xerosis; in experiment [3]; in the experiment with Micrococcus luteus) was 0 mm in each case.
Take `CCOC(=O)c1cnc(Nc2ccc(N3CCOCC3)cc2)nc1O`: the zone of inhibition at 500 µM in experiment [1] worked out at 9 mm; in the experiment with Pseudomonas aeruginosa it was 11 mm; in the experiment on Bacillus cereus it was 6 mm; in the experiment with Escherichia coli, 0 mm; in experiment [2], 14 mm; in the experiment with Klebsiella pneumoniae, 8 mm. The zone of inhibition at 500 µM (in the experiment with Corynebacterium xerosis; in experiment [3]; with Micrococcus luteus) was 0 mm throughout.
Turning to `CCOC(=O)c1cnc(Nc2ccc3[nH]ncc3c2)nc1O`, the zone of inhibition at 500 µM in experiment [1] is 8 mm; in the experiment with Pseudomonas aeruginosa it was 10 mm; with Bacillus cereus it was 10 mm; with Escherichia coli it was 0 mm; in experiment [2], 10 mm; in the experiment on Klebsiella pneumoniae, 0 mm. The zone of inhibition at 500 µM (in the experiment with Corynebacterium xerosis; in [3]; with Micrococcus luteus) was 0 mm throughout.
As to `O=C(O)c1cnc(Nc2ccc(N3CCCCC3)cc2)nc1O`, the zone of inhibition at 500 µM in experiment [1] came out at 11 mm; in the experiment on Pseudomonas aeruginosa, 0 mm; in the experiment with Bacillus cereus, 12 mm; in the experiment on Escherichia coli it was 11 mm; in [2], 0 mm; in the experiment with Klebsiella pneumoniae, 10 mm. The zone of inhibition at 500 µM (with Corynebacterium xerosis; in experiment [3]; with Micrococcus luteus) was 0 mm in each case.
For the compound `O=C(O)c1cnc(Nc2ccc3cn[nH]c3c2)nc1O`, the zone of inhibition at 500 µM in experiment [1] came out at 0 mm; in the experiment with Pseudomonas aeruginosa, 0 mm; with Bacillus cereus, 9 mm; in the experiment with Escherichia coli it was 0 mm; in experiment [2] it was 16 mm; in the experiment with Klebsiella pneumoniae it was 9 mm. The zone of inhibition at 500 µM (in the experiment with Corynebacterium xerosis; in experiment [3]; in the experiment on Micrococcus luteus) was 0 mm throughout.
For `O=C(O)c1cnc(NCc2cc(Cl)ccc2Cl)nc1O`, the zone of inhibition at 500 µM stood at 10 mm in experiment [1]; 9 mm with Pseudomonas aeruginosa; 10 mm with Bacillus cereus; 11 mm with Escherichia coli; 15 mm in [2]; 8 mm with Klebsiella pneumoniae. Also, the zone of inhibition at 500 µM in the experiment with Corynebacterium xerosis is 0 mm; in [3] it was 10 mm; in the experiment with Micrococcus luteus, 0 mm.
As to `CCOC(=O)c1cnc(NCCc2ccccn2)nc1O`, the zone of inhibition at 500 µM in [1] came out at 0 mm; with Pseudomonas aeruginosa, 0 mm; in the experiment with Bacillus cereus, 8 mm.
As to `O=C(O)c1cnc(NCCc2ccc(Cl)cc2)nc1O`, the zone of inhibition at 500 µM in experiment [1] was 12 mm; in the experiment on Pseudomonas aeruginosa, 19 mm; in the experiment on Escherichia coli, 0 mm; in [2] it was 14 mm; in the experiment on Klebsiella pneumoniae, 0 mm; in the experiment with Corynebacterium xerosis, 0 mm. Also, the zone of inhibition at 500 µM (in [3]; in the experiment with Micrococcus luteus) was 0 mm throughout.
In the case of `CCOC(=O)c1cnc(NCCc2ccncc2)nc1O`, the zone of inhibition at 500 µM in experiment [1] was determined as 4 mm; with Pseudomonas aeruginosa it was 0 mm; in the experiment with Bacillus cereus, 8 mm.
With `O=C(O)c1cnc(NCc2ccc(Cl)nc2)nc1O`, the zone of inhibition at 500 µM came out at 12 mm in experiment [1] and 10 mm with Pseudomonas aeruginosa.
